Results reported in article PMC5923123, “In Vitro and In Vivo Efficacy of a Novel and Long-Acting Fungicidal Azole, PC1244, on Aspergillus fumigatus Infection” (Antimicrobial Agents and Chemotherapy, 2018).
In brackets after ≈: the same amount, converted by molar mass. Several values for one entry are separate records, joined by “and”; a condition that tells them apart may be missing. Equal values may be shown once. Read-outs that look alike come from different tables or passages of the source.

Key:
[1] = test system: A. fumigatus hyphae (NCPF2010); experiment: Persistence of action on A. fumigatus hyphae (resazurin microtiter assay); format: cell-based, Aspergillus fumigatus; details: for IC50: Aspergillus fumigatus, NCPF2010
Procedure: The duration of action of test agents within the hyphae of A. fumigatus has been determined using a resazurin-based microtiter assay ([28]).
The persistence of action of the test agents against A. fumigatus hyphae (NCPF2010) was determined as previously reported ([28]). […] The plates were incubated for exactly 20 min at 35°C in 5% CO2. After the incubation time had elapsed, all wells on the designated washout plate were aspirated and growth medium (100 μl/well) was added across the plate. […] Resazurin (0.04% diluted in growth medium) was added to all wells of both the nonwashout and washout plates (5 μl/well) to give a final concentration of 0.002% resazurin. The plates were incubated at 35°C in 5% CO2 for 16 h. Subsequently, the fluorescence in each well was measured at an excitation λ of 545 nm and an emission λ of 600 nm using a multiscanner (Clariostar; BMG, Buckinghamshire, UK). […] This study was conducted in quadruplicate in three independent experiments.

[2] = test system: A. fumigatus NCPF2010; experiment: EUCAST broth microdilution growth inhibition (OD 530 nm, 384-well); format: cell-based; details: Aspergillus fumigatus, strain NCPF2010 (ITC-susceptible), 48 h, range tested 0.002 to 1 μg/ml
Procedure: The antifungal activities of the test compounds against A. fumigatus strains (itraconazole [ITC]-susceptible strains NCPF2010, AF294, and AF293; ITC-resistant strains AF72 and AF91) were calculated from growth curves generated by spectrophotometric analysis and compared to the activities against positive and negative controls.

[3] = test system: A. fumigatus (ATCC 13073 [strain NIH 5233]); experiment: MIC against the strain used in vivo; format: cell-based; details: Aspergillus fumigatus, ATCC13073
[4] = test system: A. fumigatus isolates; design: method as in PMID 12202554; details: MFC = lowest dilution yielding less than 3 colonies; cited from earlier work
[5] = test system: Candida albicans AR (20183.073, 20186.025); experiment: CLSI MIC; format: cell-based
[6] = test system: Candida glabrata (ATCC 36583, R363); experiment: CLSI MIC; format: cell-based; details: Nakaseomyces glabratus
[7] = test system: A. fumigatus (NCPF2010); experiment: Broth microdilution MIC (96-well) preceding MFC determination; details: Aspergillus fumigatus
Procedure: After the MIC for each compound was recorded, fungicidal activity was determined as previously described ([35]). Briefly, medium from each well (100 μl/well) was removed after pipetting up and down five times and subcultured onto 4% Sabouraud dextrose agar plates. The plates were incubated (35°C with ambient air) for 48 h, and the numbers of CFU were counted for each compound concentration. The minimum fungicidal concentration (MFC) was determined as the lowest compound concentration yielding 3 colonies or less.

[8] = test system: Candida krusei (ATCC 6258); experiment: CLSI MIC; format: cell-based; details: Pichia kudriavzevii, ATCC6258
[9] = molecular target: A. fumigatus CYP51A (Aspergillus fumigatus, UniProt Q4WNT5); experiment: CYP51 reconstitution assay (sterol 14α-demethylase inhibition)
A. fumigatus CYP51A, sequence (Q4WNT5 whole entry): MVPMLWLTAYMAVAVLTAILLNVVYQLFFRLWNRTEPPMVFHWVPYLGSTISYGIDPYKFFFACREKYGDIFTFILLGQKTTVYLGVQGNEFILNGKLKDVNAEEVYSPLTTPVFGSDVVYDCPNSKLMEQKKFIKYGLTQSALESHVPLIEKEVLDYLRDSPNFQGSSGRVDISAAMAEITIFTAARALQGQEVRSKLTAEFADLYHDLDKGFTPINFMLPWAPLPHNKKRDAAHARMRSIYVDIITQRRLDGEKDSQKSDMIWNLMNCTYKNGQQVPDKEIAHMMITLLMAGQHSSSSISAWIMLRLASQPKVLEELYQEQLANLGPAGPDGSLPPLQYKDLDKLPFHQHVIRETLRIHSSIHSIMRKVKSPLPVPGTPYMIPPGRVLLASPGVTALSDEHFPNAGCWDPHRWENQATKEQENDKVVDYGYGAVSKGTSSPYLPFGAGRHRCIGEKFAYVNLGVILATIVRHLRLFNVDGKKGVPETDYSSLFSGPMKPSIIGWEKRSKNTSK
Procedure: (§1) The test agent was added to a mixture of 0.5 μM CYP51, 1 μM A. fumigatus cytochrome P450 reductase isoenzyme 1 (AfCPR1), 50 μM eburicol, 4% (wt/vol) 2-hydroxypropyl-β-cyclodextrin, 0.4 mg/ml isocitrate dehydrogenase, 25 mM trisodium isocitrate, 50 mM NaCl, 5 mM MgCl2, and 40 mM 3-(N-morpholino) propanesulfonic acid (MOPS; pH of ∼7.2). The mixtures were then incubated at 37°C for 10 min prior to initiation with 4 mM β-NADPHNa4, followed by shaking for 20 min at 37°C. Sterol metabolites were recovered by extraction with ethyl acetate followed by derivatization with 0.1 ml N,O-bis(trimethylsilyl)trifluoroacetamide: trimethylchlorosilane (99:1) and 0.3 ml anhydrous pyridine prior to analysis by gas chromatography-mass spectrometry.

[10] = test system: Candida parapsilosis (ATCC 22019); experiment: CLSI MIC; format: cell-based; details: ATCC22019, 1 strain, MIC = 50% inhibition of fungal growth
[11] = test system: sterol composition of A. fumigatus (NCPF2010); experiment: A. fumigatus sterol analysis (GC-MS); format: cell-based, Aspergillus fumigatus; details: 2 h
[12] = test system: A. fumigatus ATCC 204305; experiment: EUCAST MIC, quality control strain; format: cell-based; details: Aspergillus fumigatus, ATCC204305; quality control strain ATCC 204305
Excerpt: The antifungal activity of PC1244 was further evaluated against 96 clinical isolates (obtained from Saint Louis Hospital, Paris, France [50 isolates], and the North West England Mycology Reference Centre, Manchester, UK [46 isolates]). […] .

[13] = test system: A. fumigatus (ATCC 13073 [strain NIH 5233]); experiment: In vivo antifungal activity, late intervention (intranasal, days 1-3 postinfection), temporarily neutropenic mice; details: for inhibition of GM in serum: 0.08 mg/ml (2.8 μg/mouse) intranasal once daily days 1-3; for inhibition of fungal load (CFU) in the lung vs vehicle: 0.08 mg/ml, 35 μl intranasal once daily days 1-3 postinfection
[14] = molecular target: A. fumigatus CYP51B (Aspergillus fumigatus, UniProt E9QY26); experiment: CYP51 reconstitution assay (sterol 14α-demethylase inhibition)
A. fumigatus CYP51B, sequence (E9QY26 whole entry): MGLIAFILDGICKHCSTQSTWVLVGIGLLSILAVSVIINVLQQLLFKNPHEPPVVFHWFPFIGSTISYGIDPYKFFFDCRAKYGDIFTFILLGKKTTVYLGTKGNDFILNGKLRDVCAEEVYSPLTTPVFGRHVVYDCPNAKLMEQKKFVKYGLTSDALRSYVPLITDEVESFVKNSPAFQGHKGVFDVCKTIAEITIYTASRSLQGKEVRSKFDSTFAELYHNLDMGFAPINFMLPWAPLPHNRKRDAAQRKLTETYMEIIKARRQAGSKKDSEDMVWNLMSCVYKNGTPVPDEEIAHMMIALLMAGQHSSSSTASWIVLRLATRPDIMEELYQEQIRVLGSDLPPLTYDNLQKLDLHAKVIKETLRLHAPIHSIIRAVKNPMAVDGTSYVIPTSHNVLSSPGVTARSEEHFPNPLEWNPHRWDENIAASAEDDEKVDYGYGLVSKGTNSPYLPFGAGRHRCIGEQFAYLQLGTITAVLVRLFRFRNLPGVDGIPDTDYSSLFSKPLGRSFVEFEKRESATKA
Procedure: as §1

[15] = in vivo; details: mouse
[16] = test system: A. fumigatus (ATCC 13073); experiment: In vivo persistence of action: single intranasal prophylactic dose 16 h before inoculation; details: PC1244 0.4 mg/ml, POS 0.8 mg/ml intranasal 16 h before inoculation; lungs 8 h after
[17] = test system: Cryptococcus gattii (clinical isolate); experiment: EUCAST MIC (EDef 7.2); format: cell-based; details: 1 strain
[18] = test system: A. fumigatus (ATCC 13073 [strain NIH 5233]); experiment: In vivo extended prophylaxis (intranasal, days -7 to 0) in infected immunocompromised mice; details: 0.0032 mg/ml (0.11 μg/mouse), compared to late intervention at the same dose
Procedure: The test agents, suspended in physiological saline, were administered intranasally (35 μl, approximately 17.5 μl each in each nostril) once daily on days 1, 2, and 3 postinfection. […] As the injection volume was fixed and the body weight changed every day, especially after infection, the accurate dose unit was the number of micrograms per mouse. However, as the average body weight after immunosuppression and just before infection was 20 g, we also calculated the estimated dose in milligrams per kilogram.

[19] = test system: 23 pathogenic fungi; format: cell-based; details: broad spectrum of pathogenic fungi
[20] = in vivo
[21] = 20 min contact, washout, 16 h incubation, read-out: Hyphae IC50 Washout
[22] = continuous contact 16 h, read-out: Hyphae IC50 No washout

C[C@@H](c1ncncc1F)[C@](O)(Cn1cncn1)c1ccc(F)cc1F [Voriconazole, voriconazole]
IC50 [1, 21]: > 1 mg/L
IC50 [1, 22]: 0.011 mg/L (≈ 0.0315 µM)
IC50 [2]: 0.15 mg/L (≈ 0.429 µM)
IC90 [2]: 0.21 mg/L (≈ 0.601 µM)
MIC [3]: 0.5 mg/L (≈ 1.43 µM)
range of MFCs for inhibition of 90% of isolates tested (MFC90) [4]: 0.5 to 4 mg/L
MIC [5]: 10 mg/L (≈ 28.6 µM)
MIC ([6]; ATCC36583): 8.13 mg/L (≈ 23.3 µM)
MIC [7]: 1.67 ± 0.58 mg/L (≈ 4.78 µM)
MIC [8]: 0.25 mg/L (≈ 0.716 µM)

CC[C@@H]([C@H](C)O)n1ncn(-c2ccc(N3CCN(c4ccc(OC[C@@H]5CO[C@@](Cn6cncn6)(c6ccc(F)cc6F)C5)cc4)CC3)cc2)c1=O [Posaconazole, posaconazole]
IC50 [1, 21]: 0.0022 mg/L (≈ 0.00314 µM)
IC50 [1, 22]: 0.00045 mg/L (≈ 0.000642 µM)
Ki [9]: < 0.001 µM
IC50 [2]: 0.007 mg/L (≈ 0.00999 µM)
IC90 [2]: 0.0084 mg/L (≈ 0.012 µM)
MIC [10]: 0.25 mg/L (≈ 0.357 µM)
Sterol composition: Eburicol ([11]; compound at 0.0001 μg/ml): 2.2 ± 1.2%
Sterol composition: Ergost-5,7-dienol ([11]; compound at 0.0001 μg/ml): 3.3 ± 1.9%
Sterol composition: Ergosterol ([11]; compound at 0.0001 μg/ml): 94.5 ± 0.1%
Sterol composition: Lanosterol ([11]; compound at 0.0001 μg/ml): 0%
Sterol composition: Eburicol ([11]; compound at 0.001 μg/ml): 5.9 ± 0.5%
Sterol composition: Ergost-5,7-dienol ([11]; compound at 0.001 μg/ml): 3.9 ± 0.6%
Sterol composition: Ergosterol ([11]; compound at 0.001 μg/ml): 87.2 ± 0.7%
Sterol composition: Lanosterol ([11]; compound at 0.001 μg/ml): 3.0 ± 0.9%
Sterol composition: Eburicol ([11]; compound at 0.01 μg/ml): 18.3 ± 1.1%
Sterol composition: Ergost-5,7-dienol ([11]; compound at 0.01 μg/ml): 0%
Sterol composition: Ergosterol ([11]; compound at 0.01 μg/ml): 74.7 ± 0.8%
Sterol composition: Lanosterol ([11]; compound at 0.01 μg/ml): 7.0 ± 0.3%
Sterol composition: Eburicol ([11]; compound at 0.1 μg/ml): 23.4 ± 0.8%
Sterol composition: Ergost-5,7-dienol ([11]; compound at 0.1 μg/ml): 0%
Sterol composition: Ergosterol ([11]; compound at 0.1 μg/ml): 67.8 ± 0.3%
Sterol composition: Lanosterol ([11]; compound at 0.1 μg/ml): 8.8 ± 0.5%
Sterol composition: Eburicol ([11]; compound at 1 μg/ml): 23.8 ± 1.3%
Sterol composition: Ergost-5,7-dienol ([11]; compound at 1 μg/ml): 0%
Sterol composition: Ergosterol ([11]; compound at 1 μg/ml): 67.4 ± 1.5%
Sterol composition: Lanosterol ([11]; compound at 1 μg/ml): 8.8 ± 0.4%
MIC [12]: 0.25 mg/L (≈ 0.357 µM)
range of MFCs for inhibition of 90% of isolates tested (MFC90) [4]: 0.06 to 2 mg/L
MIC ([5]; CLSI, 2 azole (fluconazole and voriconazole) resistant strains, MIC = 50% inhibition, two individual values for PC1244, read-out: MIC): 8.13 mg/L (≈ 11.6 µM)
inhibition of GM in serum [13]: −11%
inhibition of fungal load (CFU) in the lung vs vehicle [13]: 39%
log10 ID fold higher than that of PC1244 ([13]; mouse, in vivo): 143 fold
Ki [14]: < 0.001 µM
concentration at 24 h [15]: 0.0156 to 0.125 µg/mL
MIC ([6]; ATCC36583, CLSI, 2 strains, MIC = 50% inhibition, two individual values for PC1244, read-out: MIC): 0.5 mg/L (≈ 0.713 µM)
MIC [7]: 0.125 mg/L (≈ 0.178 µM)
number of CFU in the lung [16]: did not
MIC [17]: 0.5 mg/L (≈ 0.713 µM)

Cc1cc(N2CCN(c3ccc(C(=O)N[C@H]4CCCC[C@@H]4O)cc3)CC2)ccc1OC[C@@H]1CO[C@@](Cn2cncn2)(c2ccc(F)cc2F)C1 [PC1244, 4-(4-(4-(((3R,5R)-5-((1H-1,2,4-triazol-1-yl)methyl)-5-(2,4-difluorophenyl)tetrahydrofuran-3-yl)methoxy)-3-methylphenyl)piperazin-1-yl)-N-((1S,2S)-2-hydroxycyclohexyl)benzamide]
Hyphae Fold change (washout vs no washout) [1]: 2.4 fold and 2.41 fold
IC50 [1, 21]: 0.00025 mg/L (≈ 0.000364 µM)
IC50 [1, 22]: 0.00011 mg/L (≈ 0.00016 µM)
fold more potent than POS at inhibiting hyphal growth ([1]; no washout IC50): 4.1 fold
fold more potent than VRC at inhibiting hyphal growth ([1]; no washout IC50): 100 fold
IC50 [9]: 0.27 µM
Ki [9]: < 0.001 µM
IC50 [2]: 0.0017 mg/L (≈ 0.00248 µM)
IC90 [2]: 0.0022 mg/L (≈ 0.0032 µM)
effect on fungal load and biomarkers [18]: high levels of inhibitory effects
MIC Range [19]: <0.0078 to 2 mg/L
MIC ([3]; strain ATCC 13073, read-out: MIC): 0.063 mg/L (≈ 0.0917 µM)
MIC [10]: 0.25 mg/L (≈ 0.364 µM)
Sterol composition: Eburicol ([11]; compound at 0.0001 μg/ml): 2.5 ± 1.1%
Sterol composition: Ergost-5,7-dienol ([11]; compound at 0.0001 μg/ml): 4.6 ± 1.8%
Sterol composition: Ergosterol ([11]; compound at 0.0001 μg/ml): 91.3 ± 0.1%
Sterol composition: Lanosterol ([11]; compound at 0.0001 μg/ml): 1.7 ± 0.7%
Sterol composition: Eburicol ([11]; compound at 0.001 μg/ml): 3.4 ± 1.2%
Sterol composition: Ergost-5,7-dienol ([11]; compound at 0.001 μg/ml): 4.6 ± 0.8%
Sterol composition: Ergosterol ([11]; compound at 0.001 μg/ml): 89.2 ± 0.2%
Sterol composition: Lanosterol ([11]; compound at 0.001 μg/ml): 2.8 ± 0.6%
Sterol composition: Eburicol ([11]; compound at 0.01 μg/ml): 14.7 ± 1.5%
Sterol composition: Ergost-5,7-dienol ([11]; compound at 0.01 μg/ml): 0%
Sterol composition: Ergosterol ([11]; compound at 0.01 μg/ml): 76.8 ± 2.6%
Sterol composition: Lanosterol ([11]; compound at 0.01 μg/ml): 8.5 ± 1.1%
Sterol composition: Eburicol ([11]; compound at 0.1 μg/ml): 26.7 ± 0.8%
Sterol composition: Ergost-5,7-dienol ([11]; compound at 0.1 μg/ml): 0%
Sterol composition: Ergosterol ([11]; compound at 0.1 μg/ml): 61.0 ± 1.6%
Sterol composition: Lanosterol ([11]; compound at 0.1 μg/ml): 12.3 ± 0.8%
Sterol composition: Eburicol ([11]; compound at 1 μg/ml): 28.2 ± 1.3%
Sterol composition: Ergost-5,7-dienol ([11]; compound at 1 μg/ml): 0%
Sterol composition: Ergosterol ([11]; compound at 1 μg/ml): 58.7 ± 2.2%
Sterol composition: Lanosterol ([11]; compound at 1 μg/ml): 13.1 ± 0.9%
inhibition of GM in serum [13]: 82%
inhibition of fungal load (CFU) in the lung vs vehicle [13]: 97%
CXCL1 level in BALF ([13]; infection-dependent increase): reduced
interleukin-6 (IL-6) level in serum ([13]; infection-dependent increase): reduced
tumor necrosis factor alpha (TNF-α) level in serum ([13]; infection-dependent increase): reduced
ID50 (GM in BALF) fold lower than that of POS ([13]; mouse, in vivo): 6.7 fold
A. fumigatus PCR products in lung tissue ([13]; pilot study): inhibited the accumulation of PCR products
IC50 [14]: 0.23 µM
Ki [14]: < 0.001 µM
concentration at 2 h [15]: 0.111 to 0.303 µg/mL
concentration at 8 h [15]: 0.249 to 0.339 µg/mL
concentration at 24 h [15]: 0.0415 to 0.0507 µg/mL
MIC [7]: 0.063 mg/L (≈ 0.0917 µM)
oral availability [20]: much less oral availability than posaconazole
GM levels in the lung [16]: significant inhibition
number of CFU in the lung [16]: significant inhibition
MIC ([8]; CLSI, 1 strain, read-out: MIC): 0.13 mg/L (≈ 0.189 µM)
MIC [17]: 0.5 mg/L (≈ 0.728 µM)
